Source: patent publication US20190322697A1, “2'2'-CYCLIC DINUCLEOTIDES” (Institute of Organic Chemistry and Biochemistry, ASCR, V.V.I, priority 2018, published 2019)

Assays:
[1] = molecular target: T1, AQ STING (G230A-R293Q) (Homo sapiens, UniProt Q86WV6, G230A/H232R/R293Q); experiment: Differential Scanning Fluorimetry with AQ STING; format: binding; settings: thermal shift, truncated human AQ STING 0.1 mg/ml, 150 μM CDN
T1 construct: truncated human WT STING or AQ STING (amino acid residues 140-343); 8xHis (N, cleaved yes); SUMO (N, cleaved yes); made in house; host or cells: E. coli Rosetta-gami B (DE3)
T1 sequence (Q86WV6 140-343 G230A/H232R/R293Q): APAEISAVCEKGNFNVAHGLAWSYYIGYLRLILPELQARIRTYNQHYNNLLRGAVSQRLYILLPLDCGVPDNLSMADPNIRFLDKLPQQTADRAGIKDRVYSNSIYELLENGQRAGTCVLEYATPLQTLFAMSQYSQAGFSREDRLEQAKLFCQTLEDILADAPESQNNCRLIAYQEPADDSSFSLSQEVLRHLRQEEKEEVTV
Protocol: (§1) Purified PCR products were cleaved with restriction enzymes BamHI (cat. # R0136S, NEB, Ipswich, USA) and NotI (cat. # R0189S, NEB, Ipswich, USA) and cloned into the pSUMO vector linearized with the identical enzymes.
(§2) DNase I (cat. # D5025, Sigma Aldrich, Czech Republic) and RNase A (cat. # R6513, Sigma Aldrich, Czech Republic) were added (final concentration 50 μg/ml) together with MgCl2 (final concentration 5 mmol·l^−1) to the homogenate and bacteria were lysed using French Press G-M™ High-Pressure Cell Press Homogenizer (1500 psi, 3 cycles). […] The resin was poured into a chromatography column, washed with 50 ml buffer A (50 mmol·l^−1 TrisCl (pH 8.0), 800 mmol·l^−1 NaCl, 3 mmol·l^−1 3-mercaptoethanol; 10% glycerol; 20 mmol·l^−1 imidazole) and 8-His-SUMO tagged STING proteins were eluted with 15 ml buffer A containing 300 mmol·l^−1 imidazole. […] Proteins were concentrated with Amicon® Ultra-15 10 K device (cat. # UFC901008, Merck Millipore, Billerica, USA) and flash frozen in liquid N2.
(§3) 20 μL solutions of the reaction mixtures were pipetted in triplicates into 96 well optical reaction plates and thermal denaturation of samples were performed on real time PCR cycler (LightCycler® 480 Instrument II—Roche, Basel, Switzerland). The first derivative of the thermal denaturation curves was performed to calculate denaturing temperatures of STING-CDN complexes and STING apoproteins. The thermal shift for each CDN was calculated by subtracting the average denaturing temperature of STING apoprotein from the average denaturing temperature of STING CDN complex.

[2] = molecular target: T2, WT STING (Homo sapiens, UniProt Q86WV6, H232R); experiment: Digitonin assay using 293T wtSTING-FL reporter cells; format: cell-based; settings: 293T wtSTING-FL cells, ISRE firefly luciferase reporter, digitonin buffer 30 min, then 5 hours
Source text: Two complementary oligonucleotides of the sequence […] […] […] […] […] […] […] The oligonucleotides were mixed in equal molar amounts, hybridized, and cleaved by restriction endonucleases HindIII (cat. #. R0104S, NEB, Ipswich, USA) and BglII (cat. # R0144S, NEB, Ipswich, USA). Ultimately, they were ligated into plasmid pGL4.27 (cat. # E6651, Promega, Madison, USA) linearized with the same enzymes. As result the sequence with four ISRE sites was placed upstream of the minimum promoter of firefly luciferase reporter gene.
After 5 minutes incubation at room temperature (RT), 250 μL of the mixture was added dropwise to the cells in one well. Cells were incubated 36 hours at 37° C. with 5% CO2, and then detached with 0.05% Trypsin and 0.22 g/L EDTA (both cat. # L0941, Biowest, Riverside, USA).
Transfected cells were seeded onto poly-D-lysine coated six well plates at density 50,000 cells per 1 cm^2 in DMEM medium with high glucose containing 10% heat inactivated FBS, 30 μg/mL blasticidin (cat. # ant-bl-05, InvivoGen, San Diego, USA), 0.06 mg/ml Penicillin G and 0.1 mg/ml Streptomycin Sulfate (both cat. #. L0018, Biowest, Riverside, USA). The medium was replenished every 3-4 days until visible colonies of cells resistant to blasticidin were formed.
Blasticidin resistant cells stably expressing WT STING were further transfected with pGL64.27-4×ISRE plasmid following the same procedure as described above. […] Homogeneous culture of stably double transfected cells was prepared by limiting dilution of cells in 96 well plates and wells with cells were selected that originated from a single cell.
The medium was removed next day and three fold serial dilutions of compounds in Digitonin buffer containing 50 mmol·l^−1 HEPES (cat. # H3375, Sigma Aldrich, Czech Republic) pH 7.0, 100 mmol·l^−1 KCl, 3 mmol·l^−1 MgCl2, 0.1 mmol·l^−1 DTT (cat. #D0632, Sigma Aldrich, Czech Republic), 85 mmol·l^−1 Sucrose (cat. # S7903, Sigma Aldrich, Czech Republic), 0.2% BSA (cat. # A2153, Sigma Aldrich, Czech Republic), 1 mmol·l^−1 ATP (cat. # A1852, Sigma Aldrich, Czech Republic), 0.1 mmol·l^−1 GTP (cat. # G8877, Sigma Aldrich, Czech Republic), and 10 μg/mL Digitonin A (cat. # D141, Sigma Aldrich, Czech Republic) were added to the cells. The buffer was removed after 30 minutes incubation at 37° C. with 5% CO2, the cells were washed once with 100 μl of cultivation medium, and 100 μl of medium was added to each well. The plates with cells were incubated for 5 hours at 37° C. with 5% CO2, 50 μl of the medium was removed and 30 μl of ONE-Glo™ Luciferase Assay System reagent (cat. # E6120, Promega, Madison, USA) was added to each well. Luminesce was read on Synergy H1 (Biotek, Winooski, USA).
Target sequence in this assay (Q86WV6 whole entry H232R): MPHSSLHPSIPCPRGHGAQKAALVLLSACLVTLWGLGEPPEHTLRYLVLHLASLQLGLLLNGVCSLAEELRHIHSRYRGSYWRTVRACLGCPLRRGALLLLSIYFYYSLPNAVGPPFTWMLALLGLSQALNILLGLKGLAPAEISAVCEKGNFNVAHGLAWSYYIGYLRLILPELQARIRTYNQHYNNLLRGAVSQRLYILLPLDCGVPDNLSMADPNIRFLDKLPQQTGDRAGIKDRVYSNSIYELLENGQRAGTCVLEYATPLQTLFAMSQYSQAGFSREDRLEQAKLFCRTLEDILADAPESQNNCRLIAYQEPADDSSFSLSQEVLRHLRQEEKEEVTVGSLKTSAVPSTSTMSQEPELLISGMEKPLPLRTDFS

[3] = molecular target: T2, WT STING; experiment: Differential Scanning Fluorimetry with WT STING; format: binding; parameters: truncated human WT STING or AQ STING (amino acid residues 140-343); 8xHis (N, cleaved yes); SUMO (N, cleaved yes); made in house; host or cells: E. coli Rosetta-gami B (DE3); settings: thermal shift, truncated human WT STING 0.1 mg/ml, 150 μM CDN
Protocol: as §1, §2, §3
Target sequence in this assay (Q86WV6 140-343 H232R): as the sequence (Q86WV6 140-343 G230A/H232R/R293Q) above, with A91G, Q154R counted along it

Compound | DSF ΔTm AQ STING [1] | EC50 [2] | DSF ΔTm WT STING [3]
Nc1nc2c(ncn2[C@@H]2O[C@@H]3COP(=O)(O)O[C@@H]4[C@H](O)[C@@H](COP(=O)(O)O[C@@H]2[C@@H]3O)O[C@H]4n2cnc3c(N)ncnc32)c(=O)[nH]1 [2′2′-cGAMP, reference compound] | 19.4 °C | 30 nM | 11.5 °C
Nc1ncnc2c1ncn2[C@@H]1O[C@@H]2COP(=O)(O)O[C@H]3[C@@H](O)[C@H](n4cnc5c(N)ncnc54)O[C@@H]3COP(=O)(O)O[C@H]2[C@H]1O [3′3′-c-di-AMP, reference compound] | 9.3 °C | 300 nM | 2.6 °C
Nc1nc2c(ncn2[C@@H]2O[C@@H]3COP(=O)(O)O[C@H]4[C@@H](O)[C@H](n5cnc6c(=O)[nH]c(N)nc65)O[C@@H]4COP(=O)(O)O[C@H]3[C@H]2O)c(=O)[nH]1 [3′3′-c-di-GMP, reference compound] | 7.7 °C | 5800 nM | 2.6 °C
Nc1nc2c(ncn2[C@@H]2O[C@@H]3COP(=O)(O)O[C@@H]4[C@H](O)[C@@H](COP(=O)(O)CO[C@@H]2[C@@H]3O)O[C@H]4n2cnc3c(N)ncnc32)c(=O)[nH]1 [Example 2, 2-amino-9-((1R,6R,8R,9R,15R,17R,18R,19R)-17-(6-amino-9H-purin-9-yl)-3,12,18,19-tetrahydroxy-3,12-dioxido-2,4,7,10,13,16-hexaoxa-3,12-diphosphatricyclo[13.2.1.1^6,9]nonadecan-8-yl)-1,9-dihydro-6H-purin-6-one] | 16.5 °C | 150 nM | 9.0 °C
Nc1nc2c(ncn2[C@@H]2O[C@@H]3COP(=O)(O)COC4C(O)[C@@H](COP(=O)(O)OC2C3O)O[C@H]4n2cnc3c(N)ncnc32)c(=O)[nH]1 (stereo partly drawn) [Example 3, 2-amino-9-((1R,6R,8R,9R,15R,17R,18R,19R)-8-(6-amino-9H-purin-9-yl)-3,12,18,19-tetrahydroxy-3,12-dioxido-2,4,7,10,13,16-hexaoxa-3,12-diphosphatricyclo[13.2.1.1^6]9nonadecan-17-yl)-1,9-dihydro-6H-purin-6-one] | 19.0 °C | 50 nM | 12.0 °C
Nc1nc2c(ncn2[C@@H]2O[C@@H]3COP(=O)(O)CO[C@@H]4[C@H](O)[C@@H](COP(=O)(O)CO[C@@H]2[C@@H]3O)O[C@H]4n2cnc3c(=O)[nH]c(N)nc32)c(=O)[nH]1 [Example 4, 9,9′-((1R,7R,9R,10R,16R,18R,19R,20R)-4,13,19,20-tetrahydroxy-4,13-dioxido-2,5,8,1 1,14,17-hexaoxa-4,13-diphosphatricyclo[14.2.1.1^7,10]icosane-9,18-diyl)bis(2-amino-1,9-dihydro-6H-purin-6-one)] | 0.3 °C | > 50000 nM | 0.3 °C
Nc1ncnc2c1ncn2[C@@H]1O[C@@H]2COP(=O)(O)CO[C@H]3[C@H](O)[C@@H](COP(=O)(O)O[C@@H]1[C@@H]2O)O[C@H]3n1cnc2c(N)ncnc21 [Example 5, (1R,6R,8R,9S,15R,17R,18R,19R)-8,17-bis(6-amino-9H-purin-9-yl)-3,12,18,19-tetrahydroxy-2,4,7,10,13,16-hexaoxa-3,12-diphosphatricyclo[13.2.1.1^6,9]nonadecane 3,12-dioxide] | 0.2 °C | > 50000 nM | −0.9 °C
Nc1ncnc2c1ncn2[C@@H]1O[C@@H]2COP(=O)(O)CO[C@H]3[C@H](O)[C@@H](COP(=O)(O)CO[C@H]1[C@@H]2O)O[C@H]3n1cnc2c(N)ncnc21 [Example 6, (1S,7R,9R,10S,16R,18R,19R,20R)-9,18-bis(6-amino-9H-purin-9-yl)-4,13,19,20-tetrahydroxy-2,5,8,11,14,17-hexaoxa-4,13-diphosphatricyclo[14.2.1.1^7,10]icosane 4,13-dioxide] | −0.3 °C | > 50000 nM | 0.0 °C
Nc1ncnc2c1ncn2[C@@H]1O[C@@H]2COP(=O)(O)CO[C@@H]3[C@@H](O)[C@@H](COP(=O)(O)CO[C@@H]1[C@H]2O)O[C@H]3n1cnc2c(N)ncnc21 [Example 7, (1R,7R,9R,10R,16R,18R,19S,20S)-9,18-bis(6-amino-9H-purin-9-yl)-4,13,19,20-tetrahydroxy-2,5,8,11,14,17-hexaoxa-4,13-diphosphatricyclo[14.2.1.1^7,10]icosane 4,13-dioxide] | 0.0 °C | > 50000 nM | 0.0 °C
Nc1ncnc2c1ncn2[C@@H]1O[C@@H]2COP(=O)(O)O[C@@H]3[C@H](F)[C@@H](COP(=O)(O)CO[C@@H]1[C@@H]2F)O[C@H]3n1cnc2c(N)ncnc21 [Example 8, (1S,6R,8R,9S,15R,17R,18R,19R)-8,17-bis(6-amino-9H-purin-9-yl)-18,19-difluoro-3,12-dihydroxy-2,4,7,10,13,16-hexaoxa-3,12-diphosphatricyclo[13.2.1.1^6,9]nonadecane 3,12-dioxide] | 11.5 °C | 1100 nM | 3.6 °C
Nc1nc2c(ncn2[C@@H]2O[C@@H]3COP(=O)(O)CO[C@@H]4[C@H](F)[C@@H](COP(=O)(O)O[C@@H]2[C@@H]3F)O[C@H]4n2cnc3c(N)ncnc32)c(=O)[nH]1 [Example 9, 2-amino-9-((1S,6R,8R,9S,15R,17R,18R,19R)-8-(6-amino-9H-purin-9-yl)-18,19-difluoro-3,12-dihydroxy-3,12-dioxido-2,4,7,10,13,16-hexaoxa-3,12-diphosphatricyclo[13.2.1.1^6,9]nonadecan-17-yl)-1,9-dihydro-6H-purin-6-one] | 22.9 °C | 30 nM | 15.2 °C
